Measured values from ChEMBL document CHEMBL1148155, “Botryllamides E-H, four new tyrosine derivatives from the ascidian Botrylloides tyreum” (J Nat Prod, 2004).

test system: HCT-116; assay: Cytotoxicity against human HCT116 cells after 72 hrs by MTS/PMS assay; format: functional, cell-based; details: HCT-116, 72 h

First: CO/C(=C\c1ccc(O)cc1)C(=O)N/C=C/c1cc(Br)c(OC)c(Br)c1 [BOTRYLLAMIDE A]
Second: CO/C(=C\c1ccc(O)cc1)C(=O)N/C=C/c1cc(Br)c(O)c(Br)c1 [BOTRYLLAMIDE G]
The IC50 of the first is 3.3-fold lower: 33 µM for the first, 110 µM for the second.

`CO/C(=C\c1ccc(O)cc1)C(=O)N/C=C/c1ccc(OC)c(Br)c1` [BOTRYLLAMIDE C] and `CO/C(=C\c1ccc(O)cc1)C(=O)N/C=C/c1ccc(OC)cc1` [BOTRYLLAMIDE E] are within 1.5-fold of each other in IC50: 28 µM for the first, 30 µM for the second.

Work on `CO/C(=C\c1ccc(O)cc1)C(=O)N/C=C/c1ccc(O)cc1` [BOTRYLLAMIDE F] yielded an IC50 of 85 µM.
